According to publication PMC10825133, “Repurposing proteasome inhibitors for improved treatment of triple-negative breast cancer” (Cell Death Discovery, 2024):
pIC50: −log10 of the molar value.

Legend:
HCC70 cells = test: Resazurin-based cell viability assay, monotherapy drug screen; design: species or system human; AUC: scale not given here; settings: HCC70; for AUC: area under the dose response curve, 24 h; for GRmax: drug efficacy at highest tested dose (<0 cytotoxic, 0 cytostatic, >0 partial growth inhibition)
Procedure: (§1) Eighteen pharmaceutical compounds were purchased from Selleckchem. […] The stock solutions were stored at -80°C. […] New drug plates were prepared for each drug screen.
(§2) To determine the optimal seeding density and ensure that the cells were in the exponential phase during the duration of the experiment (approx. 52h), each cell line (BT-549, CAL-148, HCC1806, HCC38, HCC70, MCF-10A, MCF-7, MDA-MB-436, MDA-MB-453, and MDA-MB-468) was seeded at different concentrations (1000 to 16000 cells) per 96-well, as previously described. Cell viability was measured daily (day 0 [plating day] to day 4) using 0.2 mg/ml resazurin solution prepared from resazurin sodium salt (Fisher Scientific) dissolved in sterile 1xPBS (ThermoFisher Scientific). Before use, the resazurin solution was brought to RT before 10 µl (10% of cell medium volume) was added to each 96-well and incubated for 4h at 37°C. The absorbance was measured with a 560 nm excitation filter and a 615 nm emission filter in a Wallac 1420 VICTOR2™ microplate reader (Perkin Elmer). The slope of the curve was used to determine the optimal seeding density, i.e., the highest seeding density with linear growth between days 1 and 3.

MDA-MB-453 cells = test: as above; design: species or system human; AUC: scale not given here; settings: MDA-MB-453; for AUC: area under the dose response curve, 24 h; for GRmax: drug efficacy at highest tested dose (<0 cytotoxic, 0 cytostatic, >0 partial growth inhibition)
Procedure: as §1, §2

BT-549 cells = test: as above; design: species or system human; AUC: scale not given here; settings: BT-549; for AUC: area under the dose response curve, 24 h; for GRmax: drug efficacy at highest tested dose (<0 cytotoxic, 0 cytostatic, >0 partial growth inhibition)
Procedure: as §1, §2

HCC38 cells = test: as above; design: species or system human; AUC: scale not given here; settings: HCC38; for AUC: area under the dose response curve, 24 h; for GRmax: drug efficacy at highest tested dose (<0 cytotoxic, 0 cytostatic, >0 partial growth inhibition)
Procedure: as §1, §2

MCF-10A cells = test: as above; design: species or system human; AUC: scale not given here; settings: for AUC: area under the dose response curve, 24 h; for GRmax: drug efficacy at highest tested dose (<0 cytotoxic, 0 cytostatic, >0 partial growth inhibition)
Procedure: as §1, §2

MCF-7 cells = test: as above; design: species or system human; AUC: scale not given here; settings: MCF-7; for AUC: area under the dose response curve, 24 h; for GRmax: drug efficacy at highest tested dose (<0 cytotoxic, 0 cytostatic, >0 partial growth inhibition)
Procedure: as §1, §2

MDA-MB-436 cells = test: as above; design: species or system human; AUC: scale not given here; settings: MDA-MB-436; for AUC: area under the dose response curve, 24 h; for GRmax: drug efficacy at highest tested dose (<0 cytotoxic, 0 cytostatic, >0 partial growth inhibition)
Procedure: as §1, §2

HCC1806 cells = test: as above; design: species or system human; AUC: scale not given here; settings: HCC1806; for AUC: area under the dose response curve, 24 h; for GRmax: drug efficacy at highest tested dose (<0 cytotoxic, 0 cytostatic, >0 partial growth inhibition)
Procedure: as §1, §2

MDA-MB-468 cells = test: as above; design: species or system human; AUC: scale not given here; settings: MDA-MB-468; for AUC: area under the dose response curve, 24 h; for GRmax: drug efficacy at highest tested dose (<0 cytotoxic, 0 cytostatic, >0 partial growth inhibition)
Procedure: as §1, §2

[1] = system: eight TNBC cell lines (BT-549, CAL-148, HCC1806, HCC38, HCC70, MDA-MB-436, MDA-MB-453, MDA-MB-468); test: Monotherapy drug screen, mean across the TNBC cell lines
Procedure: (§3) Eighteen pharmaceutical compounds were purchased from Selleckchem (Supplementary Table 2). Stock solutions were prepared using dimethyl sulfoxide (DMSO; Merck), physiological saline (sodium chloride 0.9%) or Milli-Q water, and stored at −80 °C. […] Matched concentration solvent vehicle controls were used for each drug concentration. The drug screens were performed in triplicate and repeated three (monotherapy) or two (combination therapy) times (Fig. 7).
(§4) The optimal seeding density per 96-well was determined for each cell line as previously described. The cells were seeded at a density of 4.0 × 10^3 to 7.5 × 10^3 (cell type dependent) in 96-well clear, flat-bottom microplates (Corning Life Sciences, Sigma-Aldrich) in 100 µl complete culture medium (Supplementary Table 1) and cultured for 24 h. Cell viability was determined using the resazurin assay in untreated cells at the time of plating (t = 0) and treated cells after 24 h drug treatment (Fig. 7). Percentage cell viability was calculated as 100% × (absorbance of treated cells – absorbance of background controls) / (absorbance of matched solvent vehicle controls – absorbance of background controls). The area under the curve (AUC), half-maximal inhibitory concentration (IC50), drug potency (GR50), and drug efficacy (GRmax) were determined for each compound using the GRmetrics (version 1.20.0) package in R. The monotherapy data were evaluated with the IDACombo (version 1.0.2) package in R to predict potential drug combinations (Table 1). SynergyFinder (version 3.2.10) package in R was used to identify synergistic drug combinations.
(§5) Eighteen pharmaceutical compounds were purchased from Selleckchem. […] The solubility of the compound was enhanced by pre-heating the solvent (lukewarm), if necessary. […] The stock solutions were stored at -80°C. […] Matched concentration solvent vehicle controls were used for each drug concentration. The drug screens were performed in triplicate and repeated three times for the monotherapies and twice for the combination treatments. The drug(s) and corresponding controls were plated in 96-well PCR plates (VWR) and stored at -20°C (Fig. 6). The drug plates were thawed, centrifuged (3000 rpm for 30s), and acclimatized to RT before the drugs were added to the cells. New drug plates were prepared for each drug screen.
(§6) The cells were seeded at a density of 4.0x10^3 to 7.5x10^3 (cell type-dependent) in 96-well clear, flat-bottom microplates (Corning Life Sciences, Sigma-Aldrich) in 100 µl culture medium supplemented with 10% FBS and cultured for 24h. Cell viability was determined using the resazurin assay after 24h drug treatment (Fig. 6). Percentage cell viability was calculated as 100% × (absorbance of treated cells – absorbance of background controls) / (absorbance of matched solvent vehicle controls – absorbance of background controls). Normalized growth rate inhibition (GR) was assessed using the absorbance of untreated cells after the time of plating (t = 0). […] For combination treatment, the monotherapy data were evaluated with the IDACombo (version 1.0.2)[20] package in R to predict potential drug combinations (Table 1). SynergyFinder (version 3.2.10)[21] package in R was used to identify synergistic drug combinations.

CAL-148 cells = test: Resazurin-based cell viability assay, monotherapy drug screen; design: species or system human; AUC: unit not given beside the values; settings: CAL-148; for AUC: area under the dose response curve, 24 h; for GRmax: drug efficacy at highest tested dose (<0 cytotoxic, 0 cytostatic, >0 partial growth inhibition)
Procedure: as §3, §4, §5
Cell viability was measured daily (day 0 [plating day] to day 4) using 0.2 mg/ml resazurin solution prepared from resazurin sodium salt (Fisher Scientific) dissolved in sterile 1xPBS (ThermoFisher Scientific). Before use, the resazurin solution was brought to RT before 10 µl (10% of cell medium volume) was added to each 96-well and incubated for 4h at 37°C. […] The slope of the curve was used to determine the optimal seeding density, i.e., the highest seeding density with linear growth between days 1 and 3.
as §6

SMILES	AUC (HCC70 cells)	GRmax (HCC70 cells)	AUC (MDA-MB-453 cells)	GRmax (MDA-MB-453 cells)	AUC (BT-549 cells)	GRmax (BT-549 cells)	AUC (HCC38 cells)	GRmax (HCC38 cells)	AUC (MCF-10A cells)	GRmax (MCF-10A cells)	AUC (MCF-7 cells)	GRmax (MCF-7 cells)	AUC (MDA-MB-436 cells)	GRmax (MDA-MB-436 cells)	AUC (HCC1806 cells)	GRmax (HCC1806 cells)	AUC (MDA-MB-468 cells)	GRmax (MDA-MB-468 cells)	cytotoxic effect at the highest dose [1]	AUC (CAL-148 cells)	also measured
CCCc1ccc(OCC(=O)N(Cc2nc(-c3cccnc3)no2)C(C)C)cc1 [PI-1840]	1.0	1.0	1.0	0.93	0.99	1.0	1.0	1.0	1.0	1.0	1.0	0.97	1.0	1.0	1.0	0.98	0.98	0.96	lowest cytotoxic effects	1.0	GRmax (CAL-148 cells): 1.0
O=[N+]([O-])c1ccc(S(=O)(=O)N2CCN(c3ccnc4cc(Cl)ccc34)CC2)c([N+](=O)[O-])c1 [VR-23]	0.98	0.82	0.99	0.40	0.98	0.85	1.0	0.95	1.0	1.0	0.98	0.82	1.0	1.0	1.0	0.93	0.97	0.74	lowest cytotoxic effects	1.0	pIC50 (MCF-7 cells; 24 h drug treatment, read-out: IC50): 5.22; GRmax (CAL-148 cells): 0.95
